# Read-outs that look alike come from different tables or passages of the source.
# Legend:
# [1] = test system: tactile allodynia in STZ-diabetic DA rats; experiment: baseline von Frey paw withdrawal thresholds in STZ-diabetic rats given dietary L-arginine; format: in vivo, rat
# Description: Filaments were calibrated daily before undertaking antinociceptive testing.
# [2] = test system: mechanical allodynia in STZ-diabetic DA rats; experiment: von Frey antinociception (relief of mechanical allodynia) after single s.c. opioid in STZ-diabetic DA rats, standard chow or dietary L-arginine; conditions: for ED50: Rattus norvegicus, sc; for peak antinociception / time of decline of antinociception to baseline levels (<20% MPE) / time to peak antinociception: 3 wks post-STZ
# Experimental: Deep and stable anaesthesia was induced with a mixture of ketamine (100 mg/kg, i.p.) and xylazine (16 mg/kg, i.p.) to facilitate insertion of a polyethylene cannula (previously filled with 0.1 ml of sterile saline) into the right common jugular vein. Jugular vein cannulae were tested for correct placement by the withdrawal of a small amount of blood. Diabetes was induced following an acute i.v. injection of streptozotocin (STZ) (85 mg/kg) in 0.1 M citrate buffer (pH 4.5) into the jugular vein.
# Naïve non-diabetic rats (n=36) were used in the control experiments. Following STZ administration, benzylpenicillin (60 mg, s.c.) was administered to prevent infection and rats were monitored closely during surgical recovery. Rats were then housed singly or in pairs for period of 3 wks to 38 wks, depending upon the study cohort to which they belonged.
# (§1) Multiple aliquots of these stock solutions were stored at −20° C. until required. […] Whilst under light anaesthesia with CO2/O2 (50:50%), rats received a single s.c. injection (100 μL) of one opioid or vehicle (saline) into the dorsal region of the base of the neck, using a 250 μL Hamilton syringe.
# (§2) Mechanical allodynia, the distinguishing feature of diabetic neuropathic pain, was quantified using von Frey filaments. Rats were placed in a metabolic cage (20 cm×20 cm×20 cm) with a metal mesh floor and allowed to acclimatise for approximately 10 min. von Frey filaments were used to quantify the lowest mechanical threshold required for a brisk paw withdrawal reflex. The force was applied to the plantar surface of the left hindpaw and held until the filament buckled slightly. The absence of a response after 5 s prompted application of the next filament of increasing force. Filaments available for use included those that produced a buckling weight of 2, 4, 5, 6, 8, 10, 12, 14, 16, and 18 g. Filaments were calibrated daily before undertaking antinociceptive testing. […] Pre-drug (opioid or saline) responses were the mean of three readings taken ≈5 min apart. Assessment of von Frey filament responsiveness was determined at the following times post-opioid (or saline) administration: 15, 30, 45, 60, 90, 120 and 180 min.
# (§3) The von Frey scores for individual rats were converted to the Percentage of the Maximum Possible Antinociceptive Effect (% MPE), according to the formula: [formula]
# (§4) The mean (±SEM) percentage maximum AUC (% Max AUC) was calculated according to the following formula: [formula]
# (§5) ED50 estimation was facilitated by the inclusion of theoretical maximum and minimum % Max AUC values.
# This study comprised three groups of STZ-diabetic DA rats. […] Subsequent doses were chosen to facilitate construction of dose-response curves for the alleviation of tactile allodynia. Antinociception was quantified using calibrated von Frey filaments.
# At 9 wks post-STZ administration, Group 1 STZ-diabetic rats received a dietary intervention of an L-arginine supplement (1 g per day) incorporated into rat chow, until the end of the 24 wk study period.
# At 14 wks post-STZ administration, a dietary intervention comprising L-arginine supplementation (1 g per day in rat chow) was initiated which was continued for another 8 wks.
# At 30 wks post-STZ administration, dietary L-arginine supplementation (1 g/day in rat chow) was initiated and continued for 8 wks.
# [3] = body weight of control non-diabetic rats given dietary L-arginine; format: in vivo, rat; conditions: control non-diabetic rats after 1 wk dietary L-arginine
# Description: Importantly, since diabetic rats eat twice as much as naïve control non-diabetic rats, the concentration of L-arginine in rat chow administered to control non-diabetic rats was doubled to maintain consistent L-arginine dosing between the STZ-diabetic rats and the control non-diabetic rats.
# [4] = body weight of STZ-diabetic rats given dietary L-arginine; format: in vivo, rat
# Description: Group 3 STZ-diabetic rats, (n=6, 224.7±2.9 g, mean±SEM) were the same rats used in Example 1 above. […] At 30 wks post-STZ administration, dietary L-arginine supplementation (1 g/day in rat chow) was initiated and continued for 8 wks.
# [5] = test system: naïve Dark Agouti rats; conditions: s.c., tail flick test; cited from earlier work
# [6] = test system: rats with a chronic constriction injury (CCI) of the sciatic nerve; conditions: relief of mechanical allodynia; cited from earlier work
# [7] = test system: naïve control non-diabetic DA rats; experiment: von Frey antinociception after single s.c. opioid in control non-diabetic DA rats; format: in vivo, rat; conditions: for ED50: s.c.
# Experimental: as §1, §2, §3, §4, §5
# Weight-matched naïve control DA rats received dietary L-arginine supplementation (1 g per day in rat chow) for at least 1 wk prior to acute opioid administration and concomitant antinociceptive testing. Importantly, since diabetic rats eat twice as much as naïve control non-diabetic rats, the concentration of L-arginine in rat chow administered to control non-diabetic rats was doubled to maintain consistent L-arginine dosing between the STZ-diabetic rats and the control non-diabetic rats.
# [8] = Group 1, 12 wks post-STZ (3 wks L-arginine)
# [9] = Group 2, 18 wks post-STZ (4 wks L-arginine)
# [10] = Group 2, 22 wks post-STZ (8 wks L-arginine)
# [11] = Group 3, 34 wks post-STZ (4 wks L-arginine)
# [12] = Group 3, 38 wks post-STZ (8 wks L-arginine)
# [13] = 3 wks supplementation, 9 to 12 wks post-STZ
# [14] = 24 wks post-STZ / full 24 wk study period, standard chow
# [15] = 504 h, read-out: Mean (±SEM) ED50, STZ-diabetic rats 3 wks post-STZ, standard chow, s.c.
# [16] = 1512 h, STZ-diabetic rats at 3 and 9 wks post-STZ, standard chow
# [17] = 1512 h, read-out: Mean (±SEM) ED50, STZ-diabetic rats 9 wks post-STZ, standard chow (before L-arginine), s.c.
# [18] = STZ-diabetic rats 12 wks post-STZ after 3 wks dietary L-arginine (1 g/day), s.c.
# [19] = STZ-diabetic rats 24 wks post-STZ after 15 wks dietary L-arginine (1 g/day), s.c.
# [20] = Rattus norvegicus, sc, control naïve non-diabetic rats, standard chow, von Frey % Max AUC, read-out: Mean (±SEM) ED50
structure (smiles),measurement,setting,value
N=C(N)NCCC[C@H](N)C(=O)O [L-arginine],paw withdrawal threshold,"[1]; Group 1, 9 wks post-STZ (start of dietary L-arginine 1 g/day)",6.8 (±0.3) g
same,paw withdrawal threshold,[1]; [8],4.3 (±0.1) g
same,paw withdrawal threshold,"[1]; Group 1, 24 wks post-STZ (15 wks L-arginine)",5.2 (±0.1) g
same,paw withdrawal threshold,[1]; [9],4.9 (±0.2) g
same,paw withdrawal threshold,[1]; [10],6.1 (±0.4) g
same,paw withdrawal threshold,[1]; [11],3.9 (±0.2) g
same,paw withdrawal threshold,[1]; [12],5.0 (±0.2) g
same,effect of dietary L-arginine on morphine's antinociceptive efficacy,[2]; [13],prevented the abolition
same,effect of dietary L-arginine on oxycodone potency,[2]; [13],prevented the 2-fold decrease
same,effect of dietary L-arginine on antinociceptive potency of morphine,"[2]; 4 wks supplementation (30 to 34 wks post-STZ), Group 3",partially restored
same,effect of dietary L-arginine on antinociceptive efficacy of s.c. morphine (6.1 mg/kg),"[2]; 4 wks supplementation, Group 2, 18 wks post-STZ",restored
same,effect of late-initiated dietary L-arginine on morphine efficacy,"[2]; started 14 and 30 wks post-STZ (groups 2 and 3), after as little as 4 wks",restored morphine efficacy
same,mean (±SEM) body weight,[3],236.3 g
same,mean (±SEM) body weight,[4]; [8],229.0 (±6.0) g
same,mean (±SEM) body weight,"[4]; Group 1, 16 wks post-STZ (7 wks L-arginine)",218.0 (±7.2) g
same,mean (±SEM) body weight,"[4]; Group 1, 20 wks post-STZ (11 wks L-arginine), n=6",253.4 (±9.9) g
same,mean (±SEM) body weight,"[4]; Group 1, 24 wks post-STZ (15 wks L-arginine), n=25",234.5 (±5.1) g
same,mean (±SEM) body weight,[4]; [9],203.2 (±6.4) g
same,mean (±SEM) body weight,[4]; [10],220.9 (±11.6) g
same,mean (±SEM) body weight,[4]; [11],207.8 (±10.7) g
same,mean (±SEM) body weight,[4]; [12],221.7 (±11.7) g
COc1ccc2c3c1O[C@H]1C(=O)CC[C@@]4(O)[C@@H](C2)N(C)CC[C@]314 [oxycodone],antinociceptive efficacy/potency,"[2]; 12 wks post-STZ, standard chow, s.c.",maintained
same,antinociceptive efficacy,[2]; [14],maintained
same,ED50,[2]; [15],2 mg/kg
same,ED50,[2]; [16],2.1 ± 0.4 mg/kg
same,ED50,[2]; [17],2.1 mg/kg
same,ED50,"[2]; 2016 h, read-out: Mean (±SEM) ED50, STZ-diabetic rats 12 wks post-STZ, standard chow, s.c.",4.1 mg/kg
same,ED50,"[2]; 4032 h, read-out: Mean (±SEM) ED50, STZ-diabetic rats 24 wks post-STZ, standard chow, s.c.",4.2 mg/kg
same,ED50,[2]; [18],2 ± 0.3 mg/kg
same,ED50,[2]; [19],1.8 ± 0.3 mg/kg
same,potency relative to morphine for alleviation of mechanical allodynia,"[2]; STZ-diabetic rats 3 wks post-STZ, s.c.",≈ 3 times
same,decrease in potency between 9 and 12 wks post-STZ,"[2]; STZ-diabetic rats, standard chow",2 fold
same,decrease in antinociceptive potency relative to control non-diabetic rats,"[2]; at 12 wks post-STZ, unchanged at 24 wks, standard chow",4 fold
same,rightward shift in the dose-response curve versus non-diabetic rats,[2]; by 3 wks post-STZ,≈ 1.7 fold
same,decrease in potency relative to weight-matched control non-diabetic rats,[2]; by 9 wks post-STZ,≈ 2 fold
same,peak antinociception,[2]; oxycodone 1.7 mg/kg s.c.,90 % MPE
same,time of decline of antinociception to baseline levels (<20% MPE),[2]; oxycodone 1.7 mg/kg s.c.,≤ 120 min
same,time to peak antinociception,[2]; oxycodone 1.7 mg/kg s.c.,≤ 30 min
same,% MPE AUC,"[2]; oxycodone 2.0 mg/kg s.c., 9 wks post-STZ, standard chow",108.7±13.2 % MPE-h
same,% MPE AUC,"[2]; oxycodone 2.0 mg/kg s.c., 12 wks post-STZ, standard chow",37.0±1.1 % MPE-h
same,% MPE AUC (±SEM),"[2]; oxycodone 2.0 mg/kg s.c., 20 wks post-STZ, 11 wks dietary L-arginine (Group 1)",160.3±7.6 % MPE-h
same,% MPE AUC,"[2]; oxycodone 2.0 mg/kg s.c., 22 wks post-STZ, 8 wks dietary L-arginine (Group 2)",139.4±9.4 MPE-h
same,% MPE AUC,"[2]; oxycodone 2.0 mg/kg s.c., 38 wks post-STZ, 8 wks dietary L-arginine (Group 3)",147.0±1.9 % MPE-h
same,% MPE AUC,"[2]; oxycodone 4.0 mg/kg s.c., 24 wks post-STZ, standard chow",144.0±13.7 MPE-h
same,potency for relief of mechanical allodynia as percent of that in diabetic rats on standard chow at 9 wks post-STZ,"[2]; oxycodone, 11 wks dietary L-arginine (20 wks post-STZ)",≈ 150%
same,potency relative to morphine,[5],≈ 3 times
same,potency relative to morphine,[6],≈ 4 times
same,ED50,"[7]; Rattus norvegicus, sc, 168 h, control non-diabetic rats, dietary L-arginine 1 g/day for 1 wk, read-out: ED50",1 ± 0.1 mg/kg
same,ED50,[7]; [20],1.2 mg/kg
same,potency relative to morphine,"[7]; printed: at 3 and 9 wks post-STZ, s.c. route, naïve non-diabetic rats",≈ 2 fold
CN1CC[C@]23c4c5ccc(O)c4O[C@H]2[C@@H](O)C=C[C@H]3[C@H]1C5 [morphine],antinociceptive efficacy,[2]; [14],remained completely abolished
same,ED50,[2]; [15],6.1 mg/kg
same,ED50,[2]; [16],6.1 ± 0.3 mg/kg
same,ED50,[2]; [17],6.1 mg/kg
same,ED50,[2]; [18],7 ± 0.5 mg/kg
same,ED50,[2]; [19],5 ± 0.9 mg/kg
same,Mean (±SEM) ED50,"[2]; STZ-diabetic rats 12 wks post-STZ, standard chow, s.c.",No efficacy
same,Mean (±SEM) ED50,"[2]; STZ-diabetic rats 24 wks post-STZ, standard chow, s.c.",No efficacy
same,peak antinociception,[2]; morphine 4 mg/kg s.c.,70 % MPE
same,time of decline of antinociception to baseline levels (<20% MPE),[2]; morphine 4 mg/kg s.c.,≤ 90 min
same,time to peak antinociception,[2]; morphine 4 mg/kg s.c.,≤ 15 min
same,antinociceptive efficacy,"[2]; morphine 6.1 mg/kg s.c., 14 wks post-STZ, before L-arginine (Group 2)",completely abolished
same,efficacy for the relief of mechanical allodynia,"[2]; morphine 6.1 mg/kg s.c., 16 wks post-STZ, 7 wks dietary L-arginine",maintained
same,antinociceptive efficacy,"[2]; morphine 14.2 mg/kg s.c., 12 wks post-STZ",remained completely abolished
same,antinociception,"[2]; morphine 18 mg/kg s.c., 12 wks post-STZ",absence of antinociception
same,behavioural side effects,"[2]; morphine 18 mg/kg s.c., STZ-diabetic rats 12 wks post-STZ (myoclonus, biting of cage)",mild neuro-excitatory behaviours
same,antinociceptive efficacy,"[2]; morphine s.c., 24 wks post-STZ, 15 wks dietary L-arginine",maintained
same,potency for relief of mechanical allodynia as percent of that in control non-diabetic rats,"[2]; morphine, STZ-diabetic rats, 11 wks dietary L-arginine (20 wks post-STZ)",≈ 90%
same,ED50,[7]; [20],2.4 mg/kg
same,ED50,"[7]; control non-diabetic rats, dietary L-arginine 1 g/day for 1 wk",does not differ significantly

# Source: US20030219494A1, “Compositions and methods of using them” (priority 2002, published 2003)
